Test results reported in ChEMBL document CHEMBL3632488, “Discovery of potent and selective cytotoxic activity of new quinazoline-ureas against TMZ-resistant glioblastoma multiforme (GBM)” (Eur J Med Chem, 2015).
Calls of active or inactive are those of the source. The calls are words filed in the database; no cut-off is given here.

How the values were obtained:
[1] = Antiproliferative activity against human GBM1 cells assessed as reduction in cell viability at 10 uM incubated for 72 hrs by WST-1 method; type: functional; conditions: GBM1, 72 h
[2] = Selectivity index, ratio of IC50 for normal human astrocytes to IC50 for human GBM1 cells
[3] = Cytotoxicity against normal human astrocytes assessed as cell viability incubated for 72 hrs by WST-1 method; type: cell-based; conditions: Astrocyte
[4] = Antiproliferative activity against human GBM3 cells assessed as reduction in cell viability at 10 uM incubated for 72 hrs by WST-1 method; type: functional; conditions: GBM3, 72 h
[5] = Antiproliferative activity against human GBM2 cells assessed as reduction in cell viability incubated for 72 hrs by WST-1 method; type: functional, cell-based; conditions: GBM2, 72 h
[6] = Antiproliferative activity against human GBM3 cells assessed as reduction in cell viability incubated for 72 hrs by WST-1 method; type: functional, cell-based; conditions: GBM3, 72 h
[7] = Antiproliferative activity against human GBM1 cells assessed as reduction in cell viability incubated for 72 hrs by WST-1 method; type: functional, cell-based; conditions: GBM1, 72 h
[8] = Selectivity index, ratio of IC50 for normal human astrocytes to IC50 for human GBM3 cells
[9] = Antiproliferative activity against human GBM2 cells assessed as reduction in cell viability at 10 uM incubated for 72 hrs by WST-1 method; type: functional; conditions: GBM2, 72 h
[10] = Selectivity index, ratio of IC50 for normal human astrocytes to IC50 for human GBM2 cells
GBM1 = assay: Induction of apoptosis in human GBM1 cells assessed as loss of mitochondrial membrane potential at 10 uM after 2 hrs by JC-1 staining based fluorescence microscopy; type: functional, cell-based
[11] = molecular target: Translocator protein (Rattus norvegicus) (UniProt P16257); assay: Displacement of [3H]PK11195 from TSPO receptor in Sprague-Dawley rat cerebral cortex membrane at 100 nM by radiometric competitive assay; type: tissue-based
[12] = molecular target: Translocator protein (Rattus norvegicus) (UniProt P16257); assay: Displacement of [3H]PK11195 from TSPO receptor in Sprague-Dawley rat cerebral cortex membrane at 1 uM by radiometric competitive assay; type: tissue-based
[13] = molecular target: Translocator protein (Rattus norvegicus) (UniProt P16257); assay: Displacement of [3H]PK11195 from TSPO receptor in Sprague-Dawley rat cerebral cortex membrane at 10 uM by radiometric competitive assay; type: tissue-based
[14] = molecular target: Translocator protein (Rattus norvegicus) (UniProt P16257); assay: Displacement of [3H]PK11195 from TSPO receptor in Sprague-Dawley rat cerebral cortex membrane at 1 nM by radiometric competitive assay; type: tissue-based
[15] = molecular target: Translocator protein (Rattus norvegicus) (UniProt P16257); assay: Displacement of [3H]PK11195 from TSPO receptor in Sprague-Dawley rat cerebral cortex membrane at 10 nM by radiometric competitive assay; type: tissue-based
Translocator protein = Translocator protein (Rattus norvegicus, UniProt P16257); assay: Displacement of [3H]PK11195 from TSPO receptor in Sprague-Dawley rat cerebral cortex membrane by radiometric competitive assay; type: tissue-based

SMILES	inhibition at 10 µM [1] [%]	Ratio IC50 [2]	IC50 [3] [µM]	inhibition at 10 µM [4] [%]	IC50 [5] [µM]	IC50 [6] [µM]	IC50 [7] [µM]	Ratio IC50 [8]	inhibition at 10 µM [9] [%]	Ratio IC50 [10]	Activity (GBM1)	inhibition [11] [%]	inhibition [12] [%]	inhibition [13] [%]	inhibition [14] [%]	inhibition [15] [%]	IC50 (Translocator protein) [µM]
O=C(Nc1ccccc1F)Nc1cc2ncncc2cc1OCc1ccccc1F	80.7	2.6	10	94.6	3.6	3.8	4.2	2.6	92.4	2.6	–	–	–	–	–	–	–
O=C(Nc1cccc(Cl)c1)Nc1cc2ncncc2cc1OCc1ccccc1	79.1	1.4	7.4	74.8	4.1	6.4	5.7	1.4	97.3	1.4	–	–	–	–	–	–	–
O=C(Nc1ccc(C(F)(F)F)cc1)Nc1cc2ncncc2cc1OCc1ccccc1	92.2	1.5	9.2	99.1	8.6	3.7	5.7	1.5	95.2	1.5	–	–	–	–	–	–	–
O=C(Nc1cccc(F)c1)Nc1cc2ncncc2cc1OCc1cccc(Cl)c1	73.2	>1.5	> 10	54.5	7.8	8.3	3.7	>1.5	76.3	>1.5	–	–	–	–	–	–	–
N#CC(C#N)=NNc1cccc(Cl)c1	–	–	–	–	–	–	–	–	–	–	Active	–	–	–	–	–	–
O=C(Nc1cccc(Cl)c1)Nc1cc2ncncc2cc1OCc1ccccc1Cl	78.5	>4	> 10	103	2.1	2.8	2.6	>4	97.2	>4	Active	14	23	80	2	6	2.79
CN1C(=O)CN=C(c2ccccc2)c2cc(Cl)ccc21	–	–	–	–	–	–	–	–	–	–	–	34	85	97	0	2	–
O=C(Nc1ccc(C(F)(F)F)cc1)Nc1cc2ncncc2cc1OCc1cccc(Cl)c1	75.7	2	8.8	90.1	4.7	5.1	3.4	2	94.6	2	–	–	–	–	–	–	–
O=C(Nc1ccccc1F)Nc1cc2ncncc2cc1OCc1ccccc1	72	>1.8	> 10	75.5	4.5	5.9	6.1	>1.8	83.7	>1.8	–	–	–	–	–	–	–
O=C(Nc1cc2ncncc2cc1OCc1ccc(F)cc1)Nc1cccc2ccccc12	99.3	1.2	8.5	94.4	4.5	8.3	8.1	1.2	99	1.2	–	–	–	–	–	–	–
O=C(Nc1cc2ncncc2cc1OCc1ccccc1Cl)Nc1cccc2ccccc12	97.3	1	2.3	100	2.9	2.7	2.9	1	98.1	1	–	–	–	–	–	–	–
O=C(Nc1ccccc1F)Nc1cc2ncncc2cc1OCc1cccc(Cl)c1	73	1.6	8.7	58.8	4.4	7.5	4.2	1.6	82.3	1.6	–	–	–	–	–	–	–
O=C(Nc1ccc(Cl)c(Cl)c1)Nc1cc2ncncc2cc1OCc1ccccc1Cl	87.5	>7	> 10	104	1.3	1.2	1.8	>7	98.9	>7	Active	37	57	84	1	19	0.447
O=C(Nc1ccc(Cl)c(Cl)c1)Nc1cc2ncncc2cc1OCc1ccccc1F	84.4	–	3.9	50.2	6	> 10	4.1	–	87.6	–	–	–	–	–	–	–	–
O=C(Nc1ccc(C(F)(F)F)cc1)Nc1cc2ncncc2cc1OCc1cccc(F)c1	76.2	2	8.9	95.4	3.2	6.3	3.8	2	99.5	2	–	–	–	–	–	–	–
O=C(Nc1cccc(F)c1)Nc1cc2ncncc2cc1OCc1ccccc1Cl	97.7	2.9	9.4	102	3.2	2.4	4	2.9	102	2.9	–	–	–	–	–	–	–
COc1cc([C@@H]2c3cc4c(cc3[C@@H](O[C@@H]3O[C@@H]5CO[C@@H](C)O[C@H]5[C@H](O)[C@H]3O)[C@H]3COC(=O)[C@H]23)OCO4)cc(OC)c1O [ETOPOSIDE]	53.5	–	> 10	22.1	1.1	> 10	> 10	–	88.2	–	–	–	–	–	–	–	–
CC/C(=C(\c1ccccc1)c1ccc(OCCN(C)C)cc1)c1ccccc1 [TAMOXIFEN]	98.4	>2.1	> 10	95.7	3.5	4.7	7.5	>2.1	101	>2.1	–	–	–	–	–	–	–
O=C(Nc1ccccc1F)Nc1cc2ncncc2cc1OCc1cccc(F)c1	63	>1.3	> 10	61.4	6.4	8.1	8	>1.3	74.5	>1.3	–	–	–	–	–	–	–
O=C(Nc1ccc(Cl)c(Cl)c1)Nc1cc2ncncc2cc1OCc1cccc(F)c1	98.6	4	7.4	104	1.5	2	2.1	4	99.1	4	Active	16	42	86	3	8	1.32
O=C(Nc1cccc(Cl)c1)Nc1cc2ncncc2cc1OCc1cccc(Cl)c1	85	>2.9	> 10	100	3.5	3.5	3.3	>2.9	98.2	>2.9	–	–	–	–	–	–	–
CC[C@@]1(O)C(=O)OCc2c1cc1n(c2=O)Cc2cc3c(CN(C)C)c(O)ccc3nc2-1 [TOPOTECAN]	88.7	0.5	0.16	88.7	0.13	0.38	0.46	0.5	97.8	0.5	–	–	–	–	–	–	–
CCc1c2c(nc3ccc(OC(=O)N4CCC(N5CCCCC5)CC4)cc13)-c1cc3c(c(=O)n1C2)COC(=O)[C@]3(O)CC	34.1	–	> 10	54.1	2.4	5	> 10	–	91.8	–	–	–	–	–	–	–	–
O=C(Nc1cc2ncncc2cc1OCc1ccc(Cl)cc1)Nc1cccc2ccccc12	97.1	>1.5	> 10	98.8	4.5	7.7	7.9	>1.5	98.5	>1.5	–	–	–	–	–	–	–
